Assay results from ChEMBL document CHEMBL1201861, “Genomics of Drug Sensitity in Cancer screening data, Wellcome Trust Sanger Institute”.

How the values were obtained:
Experiment in all cases: cells
Details in all cases: Homo sapiens
NCI-H1648 = type: functional, cell-based
Description: SANGER: Inhibition of human NCI-H1648 cell growth in a cell viability assay.

RXF 393 = type: functional, cell-based
Description: SANGER: Inhibition of human RXF393 cell growth in a cell viability assay.

SW 962 = type: functional, cell-based
Description: SANGER: Inhibition of human SW962 cell growth in a cell viability assay.

SH-4 = type: functional, cell-based
Description: SANGER: Inhibition of human SH-4 cell growth in a cell viability assay.

NB5 = type: functional, cell-based
Description: SANGER: Inhibition of human NB5 cell growth in a cell viability assay.

GAK = type: functional, cell-based
Description: SANGER: Inhibition of human GAK cell growth in a cell viability assay.

HC-1 = type: functional, cell-based
Description: SANGER: Inhibition of human HC-1 cell growth in a cell viability assay.

MZ7-mel = type: functional, cell-based
Description: SANGER: Inhibition of human MZ7-mel cell growth in a cell viability assay.

HD-MY-Z = type: functional, cell-based
Description: SANGER: Inhibition of human HD-MY-Z cell growth in a cell viability assay.

KINGS-1 = type: functional, cell-based
Description: SANGER: Inhibition of human KINGS-1 cell growth in a cell viability assay.

EW-16 = type: functional, cell-based
Description: SANGER: Inhibition of human EW-16 cell growth in a cell viability assay.

A101D = type: functional, cell-based
Description: SANGER: Inhibition of human A101D cell growth in a cell viability assay.

DEL = type: functional, cell-based
Description: SANGER: Inhibition of human DEL cell growth in a cell viability assay.

NCI-H1355 = type: functional, cell-based
Description: SANGER: Inhibition of human NCI-H1355 cell growth in a cell viability assay.

GOTO = type: functional, cell-based
Description: SANGER: Inhibition of human GOTO cell growth in a cell viability assay.

EW-3 = type: functional, cell-based
Description: SANGER: Inhibition of human EW-3 cell growth in a cell viability assay.

no-11 = type: functional, cell-based
Description: SANGER: Inhibition of human no-11 cell growth in a cell viability assay.

RKO = type: functional, cell-based
Description: SANGER: Inhibition of human RKO cell growth in a cell viability assay.

U-87 MG = type: functional, cell-based, U-87MG ATCC
Description: SANGER: Inhibition of human U-87-MG cell growth in a cell viability assay.

KNS-81-FD = type: functional, cell-based
Description: SANGER: Inhibition of human KNS-81-FD cell growth in a cell viability assay.

IA-LM = type: functional, cell-based
Description: SANGER: Inhibition of human IA-LM cell growth in a cell viability assay.

NCI-H1395 = type: functional, cell-based
Description: SANGER: Inhibition of human NCI-H1395 cell growth in a cell viability assay.

SK-NEP-1 = type: functional, cell-based
Description: SANGER: Inhibition of human SK-NEP-1 cell growth in a cell viability assay.

EM-2 = type: functional, cell-based
Description: SANGER: Inhibition of human EM-2 cell growth in a cell viability assay.

TE-12 = type: functional, cell-based
Description: SANGER: Inhibition of human TE-12 cell growth in a cell viability assay.

ML-2 = type: functional, cell-based
Description: SANGER: Inhibition of human ML-2 cell growth in a cell viability assay.

KLE = type: functional, cell-based
Description: SANGER: Inhibition of human KLE cell growth in a cell viability assay.

KGN = type: functional, cell-based
Description: SANGER: Inhibition of human KGN cell growth in a cell viability assay.

NCI-H23 = type: functional, cell-based
Description: SANGER: Inhibition of human NCI-H23 cell growth in a cell viability assay.

LOX IMVI = type: functional, cell-based
Description: SANGER: Inhibition of human LOXIMVI cell growth in a cell viability assay.

TK-10 = type: functional, cell-based
Description: SANGER: Inhibition of human TK10 cell growth in a cell viability assay.

SK-N-DZ = type: functional, cell-based
Description: SANGER: Inhibition of human SK-N-DZ cell growth in a cell viability assay.

MS-1 = type: functional, cell-based
Description: SANGER: Inhibition of human MS-1 cell growth in a cell viability assay.

EW-24 = type: functional, cell-based
Description: SANGER: Inhibition of human EW-24 cell growth in a cell viability assay.

NCI-H2126 = type: functional, cell-based
Description: SANGER: Inhibition of human NCI-H2126 cell growth in a cell viability assay.

COLO-668 = type: functional, cell-based
Description: SANGER: Inhibition of human COLO-668 cell growth in a cell viability assay.

K562 = type: functional, cell-based
Description: SANGER: Inhibition of human K-562 cell growth in a cell viability assay.

KARPAS-299 = type: functional, cell-based
Description: SANGER: Inhibition of human KARPAS-299 cell growth in a cell viability assay.

TE-5 = type: functional, cell-based
Description: SANGER: Inhibition of human TE-5 cell growth in a cell viability assay.

VA-ES-BJ = type: functional, cell-based
Description: SANGER: Inhibition of human VA-ES-BJ cell growth in a cell viability assay.

TE-9 = type: functional, cell-based
Description: SANGER: Inhibition of human TE-9 cell growth in a cell viability assay.

KALS-1 = type: functional, cell-based
Description: SANGER: Inhibition of human KALS-1 cell growth in a cell viability assay.

EW-11 = type: functional, cell-based
Description: SANGER: Inhibition of human EW-11 cell growth in a cell viability assay.

no-10 = type: functional, cell-based
Description: SANGER: Inhibition of human no-10 cell growth in a cell viability assay.

SK-PN-DW = type: functional, cell-based
Description: SANGER: Inhibition of human SK-PN-DW cell growth in a cell viability assay.

TGBC1TKB = type: functional, cell-based
Description: SANGER: Inhibition of human TGBC1TKB cell growth in a cell viability assay.

NCI-H1155 = type: functional, cell-based
Description: SANGER: Inhibition of human NCI-H1155 cell growth in a cell viability assay.

Calu-6 = type: functional, cell-based
Description: SANGER: Inhibition of human Calu-6 cell growth in a cell viability assay.

MZ1-PC = type: functional, cell-based
Description: SANGER: Inhibition of human MZ1-PC cell growth in a cell viability assay.

NCI-H1838 = type: functional, cell-based
Description: SANGER: Inhibition of human NCI-H1838 cell growth in a cell viability assay.

NCI-H1650 = type: functional, cell-based
Description: SANGER: Inhibition of human NCI-H1650 cell growth in a cell viability assay.

LB373-MEL-D = type: functional, cell-based
Description: SANGER: Inhibition of human LB373-MEL-D cell growth in a cell viability assay.

EKVX = type: functional, cell-based
Description: SANGER: Inhibition of human EKVX cell growth in a cell viability assay.

COLO-800 = type: functional, cell-based
Description: SANGER: Inhibition of human COLO-800 cell growth in a cell viability assay.

NCI-H226 = type: functional, cell-based
Description: SANGER: Inhibition of human NCI-H226 cell growth in a cell viability assay.

TE-8 = type: functional, cell-based
Description: SANGER: Inhibition of human TE-8 cell growth in a cell viability assay.

SF-126 = type: functional, cell-based
Description: SANGER: Inhibition of human SF126 cell growth in a cell viability assay.

SBC-1 = type: functional, cell-based
Description: SANGER: Inhibition of human SBC-1 cell growth in a cell viability assay.

LC-2-ad = type: functional, cell-based
Description: SANGER: Inhibition of human LC-2-ad cell growth in a cell viability assay.

NEC8 = type: functional, cell-based
Description: SANGER: Inhibition of human NEC8 cell growth in a cell viability assay.

DB = type: functional, cell-based
Description: SANGER: Inhibition of human DB cell growth in a cell viability assay.

NCI-H1092 = type: functional, cell-based
Description: SANGER: Inhibition of human NCI-H1092 cell growth in a cell viability assay.

HT-144 = type: functional, cell-based
Description: SANGER: Inhibition of human HT-144 cell growth in a cell viability assay.

L-363 = type: functional, cell-based
Description: SANGER: Inhibition of human L-363 cell growth in a cell viability assay.

GR-ST = type: functional, cell-based
Description: SANGER: Inhibition of human GR-ST cell growth in a cell viability assay.

CGTH-W-1 = type: functional, cell-based
Description: SANGER: Inhibition of human CGTH-W-1 cell growth in a cell viability assay.

## Cn1cc(/C=C2\C(=O)Nc3cccnc32)c2ccccc21
NCI-H1648
  IC50: > 2000 nM
RXF 393
  IC50: > 2000 nM
SW 962
  IC50: > 2000 nM
SH-4
  IC50: > 2000 nM
NB5
  IC50: > 2000 nM
GAK
  IC50: > 2000 nM
HC-1
  IC50: > 2000 nM
MZ7-mel
  IC50: > 2000 nM
HD-MY-Z
  IC50: > 2000 nM
KINGS-1
  IC50: > 2000 nM
EW-16
  IC50: > 2000 nM
A101D
  IC50: > 2000 nM
DEL
  IC50: > 2000 nM
NCI-H1355
  IC50: > 2000 nM
GOTO
  IC50: > 2000 nM
EW-3
  IC50: > 2000 nM
no-11
  IC50: > 2000 nM
RKO
  IC50: > 2000 nM
U-87 MG
  IC50: > 2000 nM
KNS-81-FD
  IC50: > 2000 nM
IA-LM
  IC50: > 2000 nM
NCI-H1395
  IC50: > 2000 nM
SK-NEP-1
  IC50: > 2000 nM
EM-2
  IC50: > 2000 nM
TE-12
  IC50: > 2000 nM
ML-2
  IC50: > 2000 nM
KLE
  IC50: > 2000 nM
KGN
  IC50: > 2000 nM
NCI-H23
  IC50: > 2000 nM
LOX IMVI
  IC50: > 2000 nM
TK-10
  IC50: > 2000 nM
SK-N-DZ
  IC50: > 2000 nM
MS-1
  IC50: > 2000 nM
EW-24
  IC50: > 2000 nM
NCI-H2126
  IC50: > 2000 nM
COLO-668
  IC50: > 2000 nM
K562
  IC50: > 2000 nM
KARPAS-299
  IC50: > 2000 nM
TE-5
  IC50: > 2000 nM
VA-ES-BJ
  IC50: > 2000 nM
TE-9
  IC50: > 2000 nM
KALS-1
  IC50: > 2000 nM
EW-11
  IC50: > 2000 nM
no-10
  IC50: > 2000 nM
SK-PN-DW
  IC50: > 2000 nM
TGBC1TKB
  IC50: > 2000 nM
NCI-H1155
  IC50: > 2000 nM
Calu-6
  IC50: > 2000 nM
MZ1-PC
  IC50: > 2000 nM
NCI-H1838
  IC50: > 2000 nM
NCI-H1650
  IC50: > 2000 nM
LB373-MEL-D
  IC50: > 2000 nM
EKVX
  IC50: > 2000 nM
COLO-800
  IC50: > 2000 nM
NCI-H226
  IC50: > 2000 nM
TE-8
  IC50: > 2000 nM
SF-126
  IC50: > 2000 nM
SBC-1
  IC50: > 2000 nM
LC-2-ad
  IC50: > 2000 nM
NEC8
  IC50: 1230 nM
DB
  IC50: > 2000 nM
NCI-H1092
  IC50: > 2000 nM
HT-144
  IC50: > 2000 nM
L-363
  IC50: > 2000 nM
GR-ST
  IC50: > 2000 nM
CGTH-W-1
  IC50: > 2000 nM

## Fc1cc(-c2cc[nH]/c(=N/c3ccc(-n4cnc(N5CCOCC5)n4)cc3)n2)cc(N2CCOCC2)c1
NCI-H1648
  IC50: 473 nM
RXF 393
  IC50: 66.9 nM
SW 962
  IC50: > 5120 nM
SH-4
  IC50: 410 nM
NB5
  IC50: > 5120 nM
GAK
  IC50: 790 nM
HC-1
  IC50: 301 nM
MZ7-mel
  IC50: 2900 nM
HD-MY-Z
  IC50: 1140 nM
KINGS-1
  IC50: > 5120 nM
EW-16
  IC50: 451 nM
A101D
  IC50: 245 nM
DEL
  IC50: 289 nM
NCI-H1355
  IC50: 875 nM
GOTO
  IC50: 809 nM
EW-3
  IC50: 4230 nM
no-11
  IC50: 1350 nM
RKO
  IC50: 117 nM
U-87 MG
  IC50: 2730 nM
KNS-81-FD
  IC50: 4950 nM
IA-LM
  IC50: 371 nM
NCI-H1395
  IC50: > 5120 nM
SK-NEP-1
  IC50: 550 nM
EM-2
  IC50: 1150 nM
TE-12
  IC50: 1210 nM
ML-2
  IC50: 702 nM
KLE
  IC50: 1810 nM
KGN
  IC50: 227 nM
NCI-H23
  IC50: > 5120 nM
LOX IMVI
  IC50: 477 nM
TK-10
  IC50: 1190 nM
SK-N-DZ
  IC50: 1860 nM
MS-1
  IC50: 2630 nM
EW-24
  IC50: > 5120 nM
NCI-H2126
  IC50: 536 nM
COLO-668
  IC50: 376 nM
K562
  IC50: > 5120 nM
KARPAS-299
  IC50: 380 nM
TE-5
  IC50: 339 nM
VA-ES-BJ
  IC50: 205 nM
TE-9
  IC50: 69.2 nM
KALS-1
  IC50: 451 nM
EW-11
  IC50: 1210 nM
no-10
  IC50: 1840 nM
SK-PN-DW
  IC50: 669 nM
TGBC1TKB
  IC50: 1880 nM
NCI-H1155
  IC50: 2630 nM
Calu-6
  IC50: 518 nM
MZ1-PC
  IC50: 195 nM
NCI-H1838
  IC50: > 5120 nM
NCI-H1650
  IC50: 624 nM
LB373-MEL-D
  IC50: 2190 nM
EKVX
  IC50: 2840 nM
COLO-800
  IC50: 1990 nM
NCI-H226
  IC50: 1430 nM
TE-8
  IC50: 831 nM
SF-126
  IC50: 3160 nM
SBC-1
  IC50: > 5120 nM
LC-2-ad
  IC50: 350 nM
NEC8
  IC50: 1010 nM
DB
  IC50: 611 nM
NCI-H1092
  IC50: 1760 nM
HT-144
  IC50: 147 nM
L-363
  IC50: 445 nM
GR-ST
  IC50: 647 nM
CGTH-W-1
  IC50: 82.5 nM
